Test results: ChEMBL document CHEMBL1152316, “Caryophyllenes from a fungal culture of Chrysosporium pilosum” (2009)
Converted amounts (≈) assume the structure as drawn. The source made the active and inactive calls. No cut-off for these calls is given here.

Columns and labels:
Saccharomyces cerevisiae [1] = assay: Antifungal activity against Saccharomyces cerevisiae PM503 assessed as zone of inhibition after 48 hrs; assay type: functional, organism-based
Saccharomyces cerevisiae [2] = assay: Antifungal activity against Saccharomyces cerevisiae PM503 after 48 hrs; assay type: functional; settings: PM503, 48 h

MIC (Saccharomyces cerevisiae [2]) [µg/mL] | SMILES | Activity (Saccharomyces cerevisiae [1])
– | C=C1CC[C@H]2[C@@H](CC2(C)C)[C@H]2CO[C@@](O)(C1)C2=O | inactive
– | C/C1=C/[C@H](O)C(=O)[C@@H](CO)[C@@H]2CC(C)(C)[C@H]2CC1 | inactive
60 (≈ 238 µM) | C/C1=C/C(=O)[C@@H](O)[C@@H](CO)[C@@H]2CC(C)(C)[C@H]2CC1 | inactive
– | C/C1=C/C(=O)[C@@H](O)[C@@]2(CO2)[C@@H]2CC(C)(C)[C@H]2CC1 | inactive
